Tested on: HBV
Assay: Photodynamic inactivation of HBV in plasma by methylene blue solution under monochromatic light; HBV DNA in lymphocytes by PCR
Format: cell-based, human
Conditions: for amount of HBV DNA particles in lymphocytes, computed by PCR: HBV containing plasma, 90 minutes
Experimental: Medical instruments are placed in the cuvette 5 within the aforementioned aqueous solution of methylene blue 6, and the aforementioned door closed. The medical devices in the chamber 4 are then subjected to irradiation by emitters 7 of light energy, such as monochromatic radiation with a maximum specific content of monochromatic light with a wavelength of 590 nm or 660 nm, with a total light output of not less than 280 lm. The exposure time may be set to 90 minutes, e.g., using the aforesaid timer 9. After treatment, in the device 1, the viruses remaining on the medical instruments are completely inactivated, i.e., the viruses lose their ability to infect cells of the human body. Instruments so sterilized are then reliably reused without risk of infecting patients.
Verification steps of the employment of the claimed apparatuses and methods within an installation and carried out on in a biological environment contaminated by viruses, such as blood plasma.
Monochromatic radiation emitters 7 with a range of 590±2 nm are employed. After treatment in the inventive installation method, i.e., within device 1, samples of HBV containing plasma were treated for 90 minutes in a 0.01% solution of methylene blue, and afterward the amount of lymphocytes, computed by Polymerase Chain Reaction (PCR), of HBV DNA particles was zero, i.e., they were not found.
Monochromatic radiation emitters 7 with a range of 590±2 nm are employed. After treatment in the device 1, samples of HBV containing plasma were treated for 90 minutes in a 0.02% solution of methylene blue. As above, the amount of lymphocytes, computed by PCR, of HBV DNA particles were not found.
Monochromatic radiation emitters 7 with a range of 660±2 nm were employed. After treatment in the device 1, as set forth hereinabove, samples of HBV containing plasma were treated for 90 minutes in a 0.01% solution of methylene blue.
Monochromatic radiation emitters 7 with a range of 660±2 nm were employed.

CN(C)c1ccc2nc3ccc(=[N+](C)C)cc-3sc2c1 [methylene blue]
HBV inactivation (0.01% methylene blue solution, emitter range 588-592 nm): full effect
HBV inactivation (0.01% methylene blue solution, emitter range 658-662 nm): full sterilization treatment effect was reached
HBV inactivation (0.02% methylene blue solution, emitter range 588-592 nm): full effect
HBV inactivation (0.02% methylene blue solution, emitter range 658-662 nm): full effect
amount of HBV DNA particles in lymphocytes, computed by PCR (0.01% solution of methylene blue, emitters 590±2 nm): zero
amount of HBV DNA particles in lymphocytes, computed by PCR (0.01% solution of methylene blue, emitters 660±2 nm): found no HBV DNA particles
amount of HBV DNA particles in lymphocytes, computed by PCR (0.02% solution of methylene blue, emitters 590±2 nm): not found
amount of HBV DNA particles in lymphocytes, computed by PCR (0.02% solution of methylene blue, emitters 660±2 nm): no lymphocytes, computed by PCR, of the HBV DNA particles were found
